Where a name gives a salt, the structure may show the parent alone. Read-outs that look alike come from different tables or passages of the source.
Key:
[1] = target: human MCH-1 receptor (Homo sapiens (Human), UniProt Q99705); experiment: Binding Assay for Human Melanin-Concentrating Hormone (MCH-1) Receptor (radioligand displacement, CHO-K1 membranes); conditions: membranes from CHO-K1 cells expressing human MCH1 receptor, [3H]-labeled radioligand, Ki from IC50 by Cheng Prusoff
Experimental: Evaluation of the affinity of compounds for the human MCH-1 receptor was accomplished using 4-(3,4,5-tritritiumbenzyloxy)-1-(1-(2-(pyrrolidin-1-yl)ethyl)-1H-indazol-5-yl)pyridin-2(1H)-one and membranes prepared from stable CHO-K1 cells expressing the human MCH1 receptor obtained from Euroscreen (Batch 1138). Cell membrane homogenates (8.92 μg protein) were incubated for 60 min at 25° C. with […] of the [^3H]-labeled compound in the absence or presence of the test compound in 50 mM Tris-HCl buffer, pH 7.4. Nonspecific binding was determined in the presence of 50 μM 1-(5-(4-cyanophenyl)bicyclo[3.1.0]hexan-2-yl)-3-(4-fluoro-3-(trifluoromethyl)phenyl)-1-(3-(4-methylpiperazin-1-yl)propyl)urea. Following incubation, the samples were filtered rapidly under vacuum through Skatron 11731 filters, pre-soaked in 0.5% polyethylenimine, and washed with ice-cold 50 mM Tris-HCl buffer, pH 7.4, (wash setting 9,9,0) using a Skatron cell harvester. The filters were counted for radioactivity in a liquid scintillation counter (Tri-Carb 2100TR, Packard) using a scintillation cocktail (Ultima Gold MV, Perkin Elmer).
The results are expressed as a percent inhibition of the control radioligand specific binding. The IC50 value (concentration causing a half-maximal inhibition of control specific binding) and Hill coefficient (nH) were determined by non-linear regression analysis of the competition curve using Hill equation curve fitting. The inhibition constant (Ki) was calculated from the Cheng Prusoff equation: (Ki=IC50/(1+(L/KD)), where L=concentration of radioligand in the assay, and KD=affinity of the radioligand for the receptor.

Chain of human MCH-1 receptor (Q99705 whole entry): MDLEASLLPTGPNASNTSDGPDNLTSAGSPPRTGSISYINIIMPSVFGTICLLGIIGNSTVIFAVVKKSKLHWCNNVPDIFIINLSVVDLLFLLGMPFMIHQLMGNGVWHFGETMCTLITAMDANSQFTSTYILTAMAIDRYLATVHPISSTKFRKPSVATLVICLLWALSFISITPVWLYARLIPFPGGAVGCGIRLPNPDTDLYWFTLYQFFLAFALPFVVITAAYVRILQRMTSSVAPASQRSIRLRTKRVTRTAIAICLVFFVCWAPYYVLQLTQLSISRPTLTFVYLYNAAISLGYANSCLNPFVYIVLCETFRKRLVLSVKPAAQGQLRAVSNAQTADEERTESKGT

SMILES: O=c1cc(OCc2ccc(F)cn2)ccn1-c1ccc2c3c([nH]c2c1)CC1CCC3N1 (centres unmarked) (as salt: hydrochloride) [Example 9, 4-((5-Fluoropyridin-2-yl)methoxy)-1-(5,6,7,8,9,10-hexahydro-7,10-iminocyclohept[b]indol-3-yl)pyridin-2(1H)-one dihydrochloride]
- melting point: 205 to 211 °C (dec.)

SMILES: CC(=O)N1C2CCC1c1c([nH]c3cc(-n4ccc(OCc5ccccc5)cc4=O)ccc13)C2 (single isomer, unassigned; enantiomer a) (as salt: hydrochloride) [Example 30, 1-(11-Acetyl-5,6,7,8,9,10-hexahydro-7,10-iminocyclohept[b]indol-3-yl)-4-(benzyloxy)pyridin-2(1H)-one hydrochloride (Enantiomer A)]
- melting point: 140 to 170 °C

SMILES: Cl.O=c1cc(OCc2ccccc2)ccn1-c1ccc2c3c([nH]c2c1)CC1CCC3N1 (single isomer, unassigned; enantiomer a) [Example 21, (+)-4-(Benzyloxy)-1-(5,6,7,8,9,10-hexahydro-7,10-iminocyclohept[b]indol-3-yl)pyridin-2(1H)-one hydrochloride (Enantiomer A)]
- melting point: 211 to 212 °C
- Ki ([1]; MCH-1 Ki (nM)): 39 nM

SMILES: Cl.O=c1cc(OCc2ccccc2)ccn1-c1ccc2c3c([nH]c2c1)CC1CCC3N1 (single isomer, unassigned; enantiomer b) [Example 20, (−)-4-(Benzyloxy)-1-(5,6,7,8,9,10-hexahydro-7,10-iminocyclohept[b]indol-3-yl)pyridin-2(1H)-one hydrochloride (Enantiomer B)]
- melting point: 211 to 217 °C
- Ki ([1]; MCH-1 Ki (nM)): 9.3 nM

SMILES: Cl.Cn1c2c(c3ccc(-n4ccc(-c5ccc(C(F)(F)F)nn5)cc4=O)cc31)C1CCC(C2)N1 (centres unmarked) [Example 3, 1-(5-Methyl-5,6,7,8,9,10-hexahydro-7,10-iminocyclohept[b]indol-3-yl)-4-(6-(trifluoromethyl)pyridazin-3-yl)pyridin-2(1H)-one hydrochloride]
- melting point: 235 to 245 °C
- Ki ([1]; read-out: MCH-1 Ki): 24.4 nM

SMILES: Cl.O=c1cc(OCc2ccccc2)ccn1-c1ccc2c3c([nH]c2c1)CC1CCC3N1 (centres unmarked) [Example 8, 4-(Benzyloxy)-1-(5,6,7,8,9,10-hexahydro-7,10-iminocyclohept[b]indol-3-yl)pyridin-2(1H)-one hydrochloride]
- melting point: 209 to 214 °C
- Ki ([1]; read-out: MCH-1 Ki): 9.8 nM

SMILES: Cl.O=c1cc(-c2ccc(C(F)(F)F)nc2)ccn1-c1ccc2c3c([nH]c2c1)CC1CCC3N1 (centres unmarked) [Example 10, 1-(5,6,7,8,9,10-Hexahydro-7,10-iminocyclohept[b]indol-3-yl)-4-(6-(trifluoromethyl)pyridin-3-yl)pyridin-2(1H)-one hydrochloride]
- melting point: 215 to 235 °C (dec.)
- Ki ([1]; read-out: MCH-1 Ki): 22.7 nM

SMILES: Cl.Cn1c2c(c3ccc(-n4ccc(-c5ccc(C(F)(F)F)nc5)cc4=O)cc31)C1CCCC(C2)N1 (centres unmarked) [Example 13, 1-(5-Methyl-6,7,8,9,10,11-hexahydro-7,11-imino-5H-cyclooct[b]indol-3-yl)-4-(6-(trifluoromethyl)pyridin-3-yl)pyridin-2(1H)-one hydrochloride]
- melting point: 265 to 274 °C (dec.)
- Ki ([1]; read-out: MCH-1 Ki): 46.3 nM

SMILES: Cc1ccc(COc2cnn(-c3ccc4c5c(n(C)c4c3)CC3CCCC5N3)c(=O)c2)cn1.Cl (centres unmarked) [Example 18, 2-(5-Methyl-6,7,8,9,10,11-hexahydro-7,11-imino-5H-cyclooct[b]indol-3-yl)-5-((6-methylpyridin-3-yl)methoxy)pyridazin-3(2H)-one hydrochloride]
- melting point: 190 to 200 °C
- Ki ([1]; read-out: MCH-1 Ki): 73 nM

SMILES: Cl.Cn1c2c(c3ccc(-n4ccc(OCc5ccc(C(F)(F)F)nc5)cc4=O)cc31)C1CCCC(C2)N1 (centres unmarked) [Example 19, 1-(5-Methyl-6,7,8,9,10,11-hexahydro-7,11-imino-5H-cyclooct[b]indol-3-yl)-4-((6-(trifluoromethyl)pyridin-3-yl)methoxy)pyridin-2 (1H)-one hydrochloride]
- melting point: 240 to 250 °C
- Ki ([1]; read-out: MCH-1 Ki): 13 nM

SMILES: Cl.O=c1cc(OCc2ccccn2)ccn1-c1ccc2c3c([nH]c2c1)CC1CCC3N1 (centres unmarked) [Example 22, 1-(5,6,7,8,9,10-Hexahydro-7,10-iminocyclohept[b]indol-3-yl)-4-((pyridin-2-yl)methoxy)pyridin-2(1H)-one hydrochloride]
- melting point: 220 to 230 °C
- Ki ([1]; read-out: MCH-1 Ki): 25 nM

SMILES: Cl.Cn1c2c(c3ccc(-n4ccc(OCc5ccccn5)cc4=O)cc31)C1CCC(C2)N1 (centres unmarked) [Example 23, 1-(5-Methyl-6,7,8,9,10-hexahydro-7,10-iminocyclohept[b]indol-3-yl)-4-((pyridin-2-yl)methoxy)pyridin-2(1H)-one hydrochloride]
- melting point: 175 to 195 °C
- Ki ([1]; read-out: MCH-1 Ki): 17 nM

SMILES: CN1C2CCC1c1c(n(C)c3cc(-n4ccc(OCc5ccccc5)cc4=O)ccc13)C2.Cl (centres unmarked) [Example 26, 4-(Benzyloxy)-1-(5,11-dimethyl-5,6,7,8,9,10-hexahydro-7,10-iminocyclohept[b]indol-3-yl)pyridin-2(1H)-one hydrochloride]
- melting point: 121 to 128 °C
- Ki ([1]; read-out: MCH-1 Ki): 9.7 nM

SMILES: CC(=O)N1C2CCC1c1c(n(C)c3cc(-n4ccc(OCc5ccccc5)cc4=O)ccc13)C2 (centres unmarked) [Example 27, 1-(11-Acetyl-5-methyl-5,6,7,8,9,10-hexahydro-7,10-iminocyclohept[b]indol-3-yl)-4-(benzyloxy)pyridin-2(1H)-one]
- melting point: 91 to 96 °C
- Ki ([1]; read-out: MCH-1 Ki): 131 nM

SMILES: CN1C2CCCC1c1c(n(C)c3cc(-n4ccc(OCc5ccccc5)cc4=O)ccc13)C2.Cl (centres unmarked) [Example 31, 4-(Benzyloxy)-1-(5,12-dimethyl-6,7,8,9,10,11-hexahydro-7,11-imino-5H-cyclooct[b]indol-3-yl)pyridin-2(1H)-one hydrochloride]
- melting point: 161 to 180 °C
- Ki ([1]; read-out: MCH-1 Ki): 14 nM

SMILES: Cl.Cn1c2c(c3ccc(-n4ccc(OCc5ccc(F)cn5)cc4=O)nc31)C1CCCC(C2)N1 (centres unmarked) [Example 40, 4-((5-Fluoropyridin-2-yl)methoxy)-1-(11-methyl-5,6,7,8,9,10-hexahydro-5,9-imino-11H-cycloocta[4,5]pyrrolo[2,3-b]pyridin-2-yl)pyridin-2(1H)-one hydrochloride]
- melting point: 170 to 180 °C
- Ki ([1]; read-out: MCH-1 Ki): 49 nM

SMILES: Cl.Cn1c2c(c3ccc(-n4ccc(OCc5ccccc5)cc4=O)nc31)C1CCCC(C2)N1 (centres unmarked) [Example 41, 4-(Benzyloxy)-1-(11-methyl-5,6,7,8,9,10-hexahydro-5,9-imino-11H-cycloocta[4,5]pyrrolo[2,3-b]pyridin-2-yl)pyridin-2(1H)-one hydrochloride]
- melting point: 191 to 206 °C
- Ki ([1]; read-out: MCH-1 Ki): 30 nM

Source: patent publication US8629158B2, “Azabicycloalkane-indole and azabicycloalkane-pyrrolo-pyridine MCH-1 antagonists, methods of making, and use thereof” (Albany Molecular Research, Inc., priority 2009, dated 2014)
